Laboratory results from patent US8088763B2 (priority 2004, dated 2012).

How the values were obtained:
5HT-uptake = target: T1, 5HT-uptake (Rattus norvegicus, UniProt P31652); experiment: biochemical; details: for inhibition at 10 µM: read-out: 5HT-uptake [10 μM], % inhibition
T1 construct: synaptosomes were freshly isolated from areas of rats' brains

NA-uptake = NA-uptake (Rattus norvegicus, UniProt Q63380); experiment: biochemical; details: for inhibition at 10 µM: read-out: NA-uptake [10 μM], % inhibition
NA-uptake, sequence (Q63380 1-617): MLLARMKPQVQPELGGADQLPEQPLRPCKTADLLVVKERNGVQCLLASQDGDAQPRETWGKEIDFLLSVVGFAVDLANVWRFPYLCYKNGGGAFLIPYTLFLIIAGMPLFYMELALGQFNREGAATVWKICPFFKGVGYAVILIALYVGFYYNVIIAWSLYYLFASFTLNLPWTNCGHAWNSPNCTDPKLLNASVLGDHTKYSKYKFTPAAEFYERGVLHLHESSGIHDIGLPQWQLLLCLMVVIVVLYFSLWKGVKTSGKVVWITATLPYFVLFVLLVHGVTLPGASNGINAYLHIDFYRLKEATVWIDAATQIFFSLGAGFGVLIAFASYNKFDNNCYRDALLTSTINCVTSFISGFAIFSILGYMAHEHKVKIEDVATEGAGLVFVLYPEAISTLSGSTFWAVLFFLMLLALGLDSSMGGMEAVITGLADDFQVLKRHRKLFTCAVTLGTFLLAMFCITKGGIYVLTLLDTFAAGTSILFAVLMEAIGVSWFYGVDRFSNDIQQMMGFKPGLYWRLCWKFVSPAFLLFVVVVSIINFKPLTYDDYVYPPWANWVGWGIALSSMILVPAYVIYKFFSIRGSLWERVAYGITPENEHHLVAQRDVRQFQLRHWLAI

T1 sequence (P31652 whole entry): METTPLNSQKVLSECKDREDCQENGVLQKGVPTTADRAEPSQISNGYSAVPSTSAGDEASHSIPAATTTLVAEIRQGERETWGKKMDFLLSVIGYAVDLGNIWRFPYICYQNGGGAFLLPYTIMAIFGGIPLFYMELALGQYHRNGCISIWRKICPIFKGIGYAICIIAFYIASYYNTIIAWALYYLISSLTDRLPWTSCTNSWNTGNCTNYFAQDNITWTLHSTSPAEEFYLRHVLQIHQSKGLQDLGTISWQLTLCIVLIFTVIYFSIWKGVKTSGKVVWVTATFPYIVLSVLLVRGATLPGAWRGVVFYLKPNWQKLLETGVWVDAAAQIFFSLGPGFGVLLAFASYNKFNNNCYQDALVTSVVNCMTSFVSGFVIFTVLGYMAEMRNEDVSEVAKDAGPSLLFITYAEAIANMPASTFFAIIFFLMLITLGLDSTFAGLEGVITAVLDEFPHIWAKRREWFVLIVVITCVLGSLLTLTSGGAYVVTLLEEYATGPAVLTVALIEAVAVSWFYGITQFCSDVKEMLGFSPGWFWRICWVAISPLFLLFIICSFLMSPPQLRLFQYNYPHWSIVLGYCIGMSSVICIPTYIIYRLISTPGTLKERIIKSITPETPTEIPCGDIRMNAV

| Compound | inhibition at 10 µM (5HT-uptake) [%] | inhibition at 10 µM (NA-uptake) [%] | 5HT-uptake [10 μM], % inhibition (5HT-uptake) [%] | NA-uptake [10 μM], % inhibition (NA-uptake) [%] |
| --- | --- | --- | --- | --- |
| CN(C)C1(Cc2ccc(Cl)cc2)CCC(NC(=O)CCC(=O)N2CC=C(c3ccc(F)cc3)CC2)CC1 (centres unmarked) [Example 104, N-[4-(4-chloro-benzyl)-4-dimethylamino-cyclohexyl]-4-[4-(4-fluoro-phenyl)-3,6-dihydro-2H-pyridin-1-yl]-4-oxo-butyramide] | 93 | 84 |  |  |
| Cc1ccc(CC2(N(C)C)CCC(NC(=O)CCC(=O)NC(C)C(C)C)CC2)cc1 (centres unmarked) [Example 105, N-[4-dimethylamino-4-(4-methyl-benzyl)-cyclohexyl]-N′-(1,2-dimethyl-propyl)-succinamide] | 92 | 90 |  |  |
| Cc1cccc(CC2(N(C)C)CCC(NC(=O)CCC(=O)N3CCc4[nH]c5ccc(F)cc5c4C3)CC2)c1 (centres unmarked) [Example 106, N-[4-dimethylamino-4-(3-methyl-benzyl)-cyclohexyl]-4-(8-fluoro-1,3,4,5-tetrahydro-pyrido[4,3-b]indol-2-yl)-4-oxo-butyramide] | 93 | 98 |  |  |
| Cc1cccc(CC2(N(C)C)CCC(NC(=O)CCC(=O)N3CCN(C(=O)c4cccc(Cl)c4)CC3)CC2)c1 (centres unmarked) [Example 107, 4-[4-(3-chloro-benzoyl)-piperazin-1-yl]-N-[4-dimethylamino-4-(3-methyl-benzyl)-cyclohexyl]-4-oxo-butyramide] | 95 | 106 |  |  |
| COc1ccc(NC(=O)CCC(=O)NC2CCC(Cc3ccc(Cl)cc3)(N(C)C)CC2)cc1 (centres unmarked) [Example 108, N-[4-(4-chloro-benzyl)-4-dimethylamino-cyclohexyl]-N′-(4-methoxy-phenyl)-succinamide] | 94 | 100 |  |  |
| Cc1cccc(CC2(N(C)C)CCC(NC(=O)CCC(=O)N(C)CCc3c[nH]c4ccccc34)CC2)c1 (centres unmarked) [Example 111, N-[4-dimethylamino-4-(3-methyl-benzyl)-cyclohexyl]-N′-[2-(1H-indol-3-yl)-ethyl]-N′-methyl-succinamide] | 96 | 97 |  |  |
| Cc1cccc(CC2(N(C)C)CCC(NC(=O)CCC(=O)NC(C)c3ccc(F)cc3)CC2)c1 (centres unmarked) [Example 112, N-[4-dimethylamino-4-(3-methyl-benzyl)-cyclohexyl]-N′-[1-(4-fluoro-phenyl)-ethyl]-succinamide] | 96 | 101 |  |  |
| Cc1cccc(CC2(N(C)C)CCC(NC(=O)CCC(=O)N3CCN(c4ccc(Cl)cc4)CC3)CC2)c1 (centres unmarked) [Example 113, 4-[4-(4-chloro-phenyl)-piperazin-1-yl]-N-[4-dimethylamino-4-(3-methyl-benzyl)-cyclohexyl]-4-oxo-butyramide] | 97 | 94 |  |  |
| CN(C)C1(Cc2cccc(Cl)c2)CCC(NC(=O)CCC(=O)N2CCC3(CC2)C(=O)NCN3c2ccccc2)CC1 (centres unmarked) [Example 114, N-[4-(3-chloro-benzyl)-4-dimethylamino-cyclohexyl]-4-oxo-4-(4-oxo-1-phenyl-1,3,8-triaza-spiro[4.5]dec-8-yl)-butyramide] | 99 | 106 |  |  |
| Cc1cccc(CC2(N(C)C)CCC(NC(=O)CCC(=O)NC(C)c3ccc4ccccc4c3)CC2)c1 (centres unmarked) [Example 122, N-[4-dimethylamino-4-(3-methyl-benzyl)-cyclohexyl]-N′-(1-naphthalen-2-yl-ethyl)-succinamide] | 93 | 102 |  |  |
| COCC(Cc1ccccc1)NC(=O)CCC(=O)NC1CCC(Cc2cccc(Cl)c2)(N(C)C)CC1 (centres unmarked) [Example 123, N-[4-(3-chloro-benzyl)-4-dimethylamino-cyclohexyl]-N′-(1-methoxymethyl-2-phenyl-ethyl)-succinamide] | 92 | 99 |  |  |
| Cc1ccc(CC2(N(C)C)CCC(NC(=O)CCC(=O)NC3CCCc4ccccc43)CC2)cc1 (centres unmarked) [Example 126, N-[4-dimethylamino-4-(4-methyl-benzyl)-cyclohexyl]-N′-(1,2,3,4-tetrahydro-naphthalen-1-yl)-succinamide] | 93 | 84 |  |  |
| CN(C)C1(Cc2cccc(Cl)c2)CCC(NC(=O)CCC(=O)NCc2cc(Cl)ccc2Cl)CC1 (centres unmarked) [Example 133, N-[4-(3-chloro-benzyl)-4-dimethylamino-cyclohexyl]-N′-(2,5-dichloro-benzyl)-succinamide] | 93 | 97 |  |  |
| CN(C)C1(Cc2ccc(Cl)cc2)CCC(NC(=O)CCC(=O)N2CCN(C(=O)c3cccc(Cl)c3)CC2)CC1 (centres unmarked) [Example 134, 4-[4-(3-chloro-benzoyl)-piperazin-1-yl]-N-[4-(4-chloro-benzyl)-4-dimethylamino-cyclohexyl]-4-oxo-butyramide] | 92 | 101 |  |  |
| CCC(NC(=O)CCC(=O)NC1CCC(Cc2ccc(Cl)cc2)(N(C)C)CC1)c1ccccc1 (centres unmarked) [Example 135, N-[4-(4-chloro-benzyl)-4-dimethylamino-cyclohexyl]-N′-(1-phenyl-propyl)-succinamide] | 92 | 96 |  |  |
| CN(Cc1cccnc1)C(=O)CCC(=O)NC1CCC(Cc2cccc(Cl)c2)(N(C)C)CC1 (centres unmarked) [Example 137, N-[4-(3-chloro-benzyl)-4-dimethylamino-cyclohexyl]-N′-methyl-N′-pyridin-3-ylmethyl-succinamide] | 94 | 83 |  |  |
| CCOc1ccccc1CNC(=O)CCC(=O)NC1CCC(Cc2ccc(C)cc2)(N(C)C)CC1 (centres unmarked) [Example 138, N-[4-dimethylamino-4-(4-methyl-benzyl)-cyclohexyl]-N′-(2-ethoxy-benzyl)-succinamide] | 92 | 84 |  |  |
| COc1ccc2[nH]cc(CCNC(=O)CCC(=O)NC3CCC(Cc4cccc(C)c4)(N(C)C)CC3)c2c1 (centres unmarked) [Example 139, N-[4-dimethylamino-4-(3-methyl-benzyl)-cyclohexyl]-N′-(2-(5-methoxy-1H-indol-3-yl)-ethyl]-succinamide] | 93 | 95 |  |  |
| CCC(C)c1ccc(NC(=O)CCC(=O)NC2CCC(Cc3ccc(Cl)cc3)(N(C)C)CC2)cc1 (centres unmarked) [Example 140, N-(4-sec-butyl-phenyl)-N′-[4-(4-chloro-benzyl)-4-dimethylamino-cyclohexyl]-succinamide] | 93 | 77 |  |  |
| CN(C)C1(Cc2ccc(Cl)cc2)CCC(NC(=O)CCC(=O)NCc2cccc(Br)c2)CC1 (centres unmarked) [Example 165, N-(3-bromo-benzyl)-N′-[4-(4-chloro-benzyl)-4-dimethylamino-cyclohexyl]-succinamide] | 92 | 94 |  |  |
| Cc1ccc(CCNC(=O)CCC(=O)NC2CCC(Cc3ccc(C)cc3)(N(C)C)CC2)cc1 (centres unmarked) [Example 168, N-[4-dimethylamino-4-(4-methyl-benzyl)-cyclohexyl]-N′-(2-p-tolyl-ethyl)-succinamide] | 92 | 96 |  |  |
| Glutaric acid-(4-benzyl-4-dimethylamino- cyclohexyl)-amide 4-dimethylamino- benzylamide [Example 81] |  |  | 92 | 91 |
